Reference: PMC2744590 (Biochimica et biophysica acta, 2009)
Where two headings read alike, the source gives them in different places.

Columns and labels:
α4β2 and α4β4 nAChRs = conditions: range over both agonists and both receptors; cited from earlier work
α4 with β2S113R nAChR = α4 with β2S113R nAChR (Homo sapiens, UniProt P17787+P43681, S138R); assay: Two-electrode voltage clamp of receptors expressed in Xenopus oocytes; assay type: cell-based
α4β4 receptor = conditions: read-out: IC50 inhibiting binding of [3H]epibatidine; cited from earlier work
α4 with β2F119Q nAChR = α4 with β2F119Q nAChR (Homo sapiens, UniProt P17787+P43681, F144Q); assay: Two-electrode voltage clamp of receptors expressed in Xenopus oocytes; assay type: cell-based
[1] = target: nicotinic (α4)2(β2)3 receptors; conditions: cited from earlier work
[2] = target: α4 with wild-type β2 nAChR, (α4)2(β2)3 (Homo sapiens, UniProt P17787+P43681); assay: Two-electrode voltage clamp of receptors expressed in Xenopus oocytes; assay type: cell-based
α4β2F119Q receptors = α4β2F119Q receptors (Homo sapiens, UniProt P17787+P43681, F144Q); assay type: binding; conditions: preincubation with 100 nM epibatidine
rat α4β4 nAChRs = rat α4β4 nAChRs (Rattus norvegicus, UniProt P09483+P12392); assay type: binding
human α4β2 nAChRs = human α4β2 nAChRs (Homo sapiens, UniProt P17787+P43681); assay: Photoaffinity labeling; assay type: binding; conditions: ∼1 nM probe, 254 nm, α4 or β2 subunit
[3] = target: α4β2F119Q, α4β2S113R and wild-type (WT) hα4β2 receptors; parameters: species or system human; conditions: read-out: [3H]epibatidine binding affinities; range over α4β2F119Q, α4β2S113R and WT hα4β2 transiently expressed in HEK 293 cells
[4] = read-out: EC50 of activation, 5 oocytes

Chain of rat α4β4 nAChRs (P09483 31-630): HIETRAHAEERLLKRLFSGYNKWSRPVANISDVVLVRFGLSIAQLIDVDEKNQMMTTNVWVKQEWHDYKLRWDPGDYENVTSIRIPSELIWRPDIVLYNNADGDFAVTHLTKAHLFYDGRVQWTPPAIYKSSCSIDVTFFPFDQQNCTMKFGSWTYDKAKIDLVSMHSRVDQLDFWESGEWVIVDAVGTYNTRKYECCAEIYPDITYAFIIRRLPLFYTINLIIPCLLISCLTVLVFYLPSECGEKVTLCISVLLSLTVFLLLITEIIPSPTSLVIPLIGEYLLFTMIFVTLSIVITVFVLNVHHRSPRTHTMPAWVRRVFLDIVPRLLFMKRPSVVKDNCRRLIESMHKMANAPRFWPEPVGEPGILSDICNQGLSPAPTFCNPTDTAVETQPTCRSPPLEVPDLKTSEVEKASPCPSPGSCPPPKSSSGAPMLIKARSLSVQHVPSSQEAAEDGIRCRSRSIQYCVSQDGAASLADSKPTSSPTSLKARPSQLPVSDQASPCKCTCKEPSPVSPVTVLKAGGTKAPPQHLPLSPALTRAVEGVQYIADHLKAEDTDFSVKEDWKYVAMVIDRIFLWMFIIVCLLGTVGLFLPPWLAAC
Chain of rat α4β4 nAChRs (P12392 25-495): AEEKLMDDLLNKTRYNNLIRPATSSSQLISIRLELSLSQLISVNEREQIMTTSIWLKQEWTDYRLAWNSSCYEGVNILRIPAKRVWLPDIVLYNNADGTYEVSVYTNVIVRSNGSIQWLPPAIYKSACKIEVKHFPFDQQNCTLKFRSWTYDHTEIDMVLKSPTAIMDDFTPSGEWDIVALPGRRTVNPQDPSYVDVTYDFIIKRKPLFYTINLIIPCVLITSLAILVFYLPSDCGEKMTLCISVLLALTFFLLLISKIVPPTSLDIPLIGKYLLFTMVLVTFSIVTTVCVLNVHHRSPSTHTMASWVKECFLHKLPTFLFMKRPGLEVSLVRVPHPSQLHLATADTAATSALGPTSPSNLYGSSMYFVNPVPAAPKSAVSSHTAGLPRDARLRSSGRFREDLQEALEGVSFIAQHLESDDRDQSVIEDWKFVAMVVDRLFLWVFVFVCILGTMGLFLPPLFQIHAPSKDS
Chain of α4 with wild-type β2 nAChR, (α4)2(β2)3 (P43681 29-627 limits assumed): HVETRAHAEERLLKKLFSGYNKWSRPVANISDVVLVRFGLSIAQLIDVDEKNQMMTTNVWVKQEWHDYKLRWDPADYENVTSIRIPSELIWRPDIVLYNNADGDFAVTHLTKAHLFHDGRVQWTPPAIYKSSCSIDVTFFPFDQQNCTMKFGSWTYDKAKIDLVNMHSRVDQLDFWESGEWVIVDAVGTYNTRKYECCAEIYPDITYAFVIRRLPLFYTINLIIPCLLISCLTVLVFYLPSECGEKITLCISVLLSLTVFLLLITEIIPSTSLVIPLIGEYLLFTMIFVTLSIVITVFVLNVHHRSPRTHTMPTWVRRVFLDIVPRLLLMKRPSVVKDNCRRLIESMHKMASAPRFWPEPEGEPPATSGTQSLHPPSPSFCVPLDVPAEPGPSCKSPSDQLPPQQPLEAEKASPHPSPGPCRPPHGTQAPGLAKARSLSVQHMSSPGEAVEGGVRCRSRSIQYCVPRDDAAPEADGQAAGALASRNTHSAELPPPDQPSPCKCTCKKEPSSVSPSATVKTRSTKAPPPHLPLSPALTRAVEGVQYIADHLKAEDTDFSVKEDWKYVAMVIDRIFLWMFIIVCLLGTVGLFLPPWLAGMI
Chain of α4 with wild-type β2 nAChR, (α4)2(β2)3 (P17787 26-502): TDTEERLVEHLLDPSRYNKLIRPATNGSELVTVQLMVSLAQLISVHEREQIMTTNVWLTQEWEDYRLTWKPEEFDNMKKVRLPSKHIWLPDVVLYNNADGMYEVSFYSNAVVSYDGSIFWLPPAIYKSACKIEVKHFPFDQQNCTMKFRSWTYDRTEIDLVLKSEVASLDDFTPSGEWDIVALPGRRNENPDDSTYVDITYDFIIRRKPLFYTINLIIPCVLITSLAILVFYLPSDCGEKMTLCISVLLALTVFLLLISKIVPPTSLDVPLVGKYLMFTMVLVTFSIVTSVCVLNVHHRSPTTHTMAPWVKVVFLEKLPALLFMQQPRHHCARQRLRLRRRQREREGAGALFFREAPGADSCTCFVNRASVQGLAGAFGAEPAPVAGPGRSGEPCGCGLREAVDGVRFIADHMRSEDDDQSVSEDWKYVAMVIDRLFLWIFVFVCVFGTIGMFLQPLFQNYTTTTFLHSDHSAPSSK
Chain of α4 with β2S113R nAChR (P43681 29-627 limits assumed): as the sequence (P43681 29-627 limits assumed) above
Chain of α4 with β2S113R nAChR (P17787 26-502 S138R): as the sequence (P17787 26-502) above, with S113R counted along it
Chain of α4 with β2F119Q nAChR (P43681 29-627, stated change not applied): as the sequence (P43681 29-627 limits assumed) above
Chain of α4 with β2F119Q nAChR (P17787 26-502 F144Q): as the sequence (P17787 26-502) above, with F119Q counted along it
Chain of human α4β2 nAChRs (P17787 26-502): as the sequence (P17787 26-502) above
Chain of human α4β2 nAChRs (P43681 29-627): as the sequence (P43681 29-627 limits assumed) above
Chain of α4β2F119Q receptors (P43681 29-627, stated change not applied): as the sequence (P43681 29-627 limits assumed) above
Chain of α4β2F119Q receptors (P17787 26-502 F144Q): as the sequence (P17787 26-502) above, with F119Q counted along it

Question: Which results are given for `Cl.Cl.Ic1cncc(OC[C@@H]2CCN2)c1` [5I-A-85380, 5-iodo-A-85380 dihydrochloride]?
Answer: binding affinity (α4β2 and α4β4 nAChRs): 0.062 to 24 nM; EC50 (α4 with β2S113R nAChR; read-out: EC50 of activation, 7 oocytes): 30 ± 7 nM; IC50 (α4β4 receptor): 24 nM; EC50 (α4 with β2F119Q nAChR; [4]): 338 ± 77 nM; EC50 [1]: ~10 nM; maximal response ([1]; compared with ACh): larger than that for ACh itself; EC50 [2, 4]: 23 ± 2 nM

Question: With `Ic1ccc(C2CC3CCC2N3)cn1` (stereo not shown) [iodoepibatidine] as the molecule, how does the binding affinity (α4β2 and α4β4 nAChRs) read?
Answer: 0.062 to 24 nM

Question: For `Clc1ccc(C2CC3CCC2N3)cn1` (stereo not shown) [epibatidine], which “effect on [125I]epibatidine labeling in the β2F119Q subunit” value (α4β2F119Q receptors) is on record?
Answer: completely eliminated labeling

Question: What about the “effect on labeling by radiolabeled agonist” value (rat α4β4 nAChRs) of the same molecule?
Answer: complete elimination of labeling

Question: For [^125I]epibatidine, which pattern of photoincorporation (human α4β2 nAChRs) is on record?
Answer: very little if any photoincorporation

Question: Which Kd [3] does the source give for `Clc1ccc(C2CC3CCC2N3)cn1` (stereo not shown) [[^3H]epibatidine] here?
Answer: 0.4 to 0.7 nM

Question: What does the source list for `[125I]c1cncc(OCC2CCN2)c1` (stereo not shown) [5[^125I]A-85380]?
Answer: pattern of photoincorporation (human α4β2 nAChRs): very little if any photoincorporation; pattern of photoincorporation (rat α4β4 nAChRs; 1 nM probe, 254 nm, 30 or 15 min): incorporated selectively into the β4 subunit

Question: What does the source list for `CC(=O)OCC[N+](C)(C)C` [ACh, Acetylcholine chloride]?
Answer: actual amplitude of the ACh response (α4 with β2S113R nAChR; 1 mM ACh, single oocyte trace): -3.3 μA; actual amplitude of the ACh response (α4 with β2F119Q nAChR; 1 mM ACh, single oocyte trace): -0.03 μA; actual amplitude of the ACh response ([2]; 1 mM ACh, single oocyte trace): -0.8 μA

Question: Which “effect on labeling by radiolabeled agonist” value (rat α4β4 nAChRs; 15 min preincubation with 100 μM nicotine or 100 nM epibatidine) does the source give for `CN1CCC[C@H]1c1cccnc1` [nicotine] here?
Answer: complete elimination of labeling

Question: What about the “reduction of [125I]epibatidine labeling of β4 subunit and β4′ fragment” value (rat α4β4 nAChRs; co-application of 100 μM nicotine, γ-counting of excised gel bands) of the same molecule?
Answer: > 50%
